Non-standard residues stand in square brackets, D forms with d. Residues, ends and D or L forms follow the SMILES beside them. ξ: configuration not given here. *: point of attachment. Isovaleryl = CC(C)CC(=O)*; ξChg = NC(C(=O)O)C1CCCCC1
First: CC[C@H](NC(=O)Cc1cc(F)cc(F)c1)C(=O)N[C@H](C(=O)OC(C)(C)C)c1ccccc1 [Example 191, N-[N-(3,5-Difluorophenylacetyl)-(S)-2-aminobutanoyl]-L-phenylglycine tert-Butyl Ester]
Second: C[C@H](NC(=O)Cc1cc(F)cc(F)c1)C(=O)N[C@H](C(=O)OCC(C)(C)C)c1ccccc1 [Example 138, N-[N-(3,5-Difluorophenylacetyl)-L-alaninyl]-L-phenylglycine Neopentyl Ester]
The melting point of the first is higher: 138.7 to 140 °C for the first, 133 to 136 °C for the second.

First: COC(=O)[C@H](Cc1c[nH]c2ccccc12)NC(=O)[C@H](C)NC(=O)Cc1cc(F)cc(F)c1 [Example 106, N-[N-(3,5-Difluorophenylacetyl)-L-alaninyl]-L-tryptophan Methyl Ester]
Second: COC(=O)[C@H](Cc1cccs1)NC(=O)[C@H](C)NC(=O)Cc1cc(F)cc(F)c1 [Example 36, Methyl N-[N-(3,5-Difluorophenylacetyl)-L-alaninyl]-(S)-2-amino-3-(2-thienyl)propionate]
The melting point of the first is higher: 191 to 193 °C for the first, 145 to 147 °C for the second.

Compared with `COC(=O)C1Cc2ccccc2CN1C(=O)[C@H](C)NC(=O)Cc1cc(F)cc(F)c1` (stereo partly drawn) [Example 32, Methyl 2-[N-(3,5-Difluorophenylacetyl)-L-alaninyl]-1,2,3,4-tetrahydroisoquinoline-3-carboxylate], `COC(=O)C1CCCCN1C(=O)[C@H](C)NC(=O)Cc1cc(F)cc(F)c1` (stereo partly drawn) [Example 218, Methyl 1-[N-(3,5-Difluorophenylacetyl)-L-alaninyl]piperidine-2-carboxylate] is higher in melting point: 37 to 40 °C for the first, 114 to 118 °C for the second.

Compared with `CC[C@H](C)[C@H](NC(=O)CC(C)C)C(=O)N[C@@H](C)C(=O)OCC(C)C` [Example 82, N-[N-(Isovaleryl)-L-isoleucinyl]-L-alanine iso-butyl Ester], `CC(C)COC(=O)[C@H](C)NC(=O)[C@@H](NC(=O)CC(C)C)c1ccccc1` [Example 79, N-[N-(Isovaleryl)-L-phenylglycinyl]-L-alanine iso-butyl Ester] is higher in melting point: 142 to 146 °C for the first, 181 to 186 °C for the second.

First: COC(=O)[C@H](Cc1ccccc1)NC(=O)[C@H](C)NC(=O)CC1CCCC1 [Example 68, N-[N-(Cyclopentylacetyl)-L-alaninyl]-L-phenylalanine Methyl Ester]
Second: CCOC(=O)[C@H](C)NC(=O)[C@@H](NC(=O)CC1CCCCC1)c1ccccc1 [Example 110, N-[N-(Cyclohexylacetyl)L-phenylglycinyl]-L-alanine Ethyl Ester]
The melting point of the first is lower: 137 to 139 °C for the first, 196 to 198 °C for the second.

First: COC(=O)[C@H](Cc1ccccc1)NC(=O)[C@H](C)NC(=O)Cc1ccccn1 [Example 132, N-[N-(2-Pyridylacetyl)-L-alaninyl]-L-phenylalanine Methyl Ester]
Second: COC(=O)[C@H](Cc1ccccc1)NC(=O)[C@H](C)NC(=O)Cc1cccnc1 [Example 131, N-[N-(3-Pyridylacetyl)-L-alaninyl]-L-phenylalanine Methyl Ester]
The melting point of the first is lower: 137 to 139 °C for the first, 150 to 152 °C for the second.

`CCCC[C@H](NC(=O)Cc1cc(F)cc(F)c1)C(=O)N[C@H](C(=O)OC)c1ccccc1` [Example 252, N-[N-(3,5-Difluorophenylacetyl)-L-norleucinyl]-L-phenylglycine Methyl Ester] and `COC(=O)[C@@H](NC(=O)[C@H](CCSC)NC(=O)Cc1cc(F)cc(F)c1)c1ccccc1` [Example 193, N-[N-(3,5-Difluorophenylacetyl)-L-methioninyl]-L-phenylglycine Methyl Ester] cannot be ordered by melting point: 188 to 189.5 °C for the first, 189.3 °C for the second.

First: CCOC(=O)[C@H](C)NC(=O)[C@@H](NC(=O)Cc1ccccc1)c1ccccc1 [Example 108, N-[N-(Phenylacetyl)-L-phenylglycinyl]-L-alanine Ethyl Ester] (HELM PEPTIDE1{[O=C(Cc1ccccc1)[*:2]].[Phg].A.[CCO[*:1]]}$$$$V2.0)
Second: CC(C)(C)OC(=O)[C@@H](NC(=O)[C@@H](NC(=O)CC1CC1)c1ccccc1)c1ccccc1 [Example 264, N-[N-(Cyclopropylacetyl)-L-phenylglycinyl]-L-phenylglycine tert-Butyl Ester]
The melting point of the first is higher: 208 to 210 °C for the first, 187.5 °C for the second.

First: O=C(CC1CC1)N[C@H](C(=O)N[C@H](CO)c1ccccc1)c1ccccc1 [Example 246, N-[N-(Cyclopropaneacetyl)-L-phenylglycinyl]-L-phenylglycinol]
Second: CC(C)(C)OC(=O)[C@@H](NC(=O)[C@@H](NC(=O)Cc1cc(F)cc(F)c1)c1ccccc1)c1ccccc1 [Example 263, N-[N-(3,5-Difluorophenylacetyl)-L-phenylglycinyl]-L-phenylglycine tert-Butyl Ester]
The melting point of the first is higher: 202.5 °C for the first, 185 °C for the second.

Going from `COC(=O)[C@@H](NC(=O)[C@@H](NC(=O)Cc1cc(F)cc(F)c1)c1ccsc1)c1ccccc1` [Example 258, N-[N-(3,5-Difluorophenylacetyl)-(S)-2-amino-2-(thien-3-yl)acetyl]-L-phenylglycine Methyl Ester] to `COC(=O)[C@@H](NC(=O)[C@H](NC(=O)Cc1cc(F)cc(F)c1)c1cccs1)c1ccccc1` [Example 259, N-[N-(3,5-Difluorophenylacetyl)-(S)-2-amino-2-(thien-2-yl)acetyl]-L-phenylglycine Methyl Ester], the melting point rises from 229.3 °C to 230.8 °C.

First: COC(=O)[C@H](Cc1c[nH]cn1)NC(=O)[C@H](C)NC(=O)Cc1cc(F)cc(F)c1 [Example 2, N-[N-(3,5-Difluorophenylacetyl)-L-alaninyl]-L-histidine Methyl Ester]
Second: COC(=O)C(NC(=O)[C@H](C)NC(=O)Cc1cc(F)cc(F)c1)c1cccs1 (stereo partly drawn) [Example 176, Methyl N-[N-(3,5-Difluorophenylacetyl)-L-alaninyl]-2-amino-2-(2-thienyl)acetate]
The melting point of the first is higher: 195 to 197 °C for the first, 161 to 162 °C for the second.

Compared with `COC(=O)[C@@H](NC(=O)[C@H](C)NC(=O)Cc1cc(F)cc(F)c1)c1ccc2cc(OC)ccc2c1` [Example 182, Methyl N-[N-(3,5-Difluorophenylacetyl)-L-alaninyl]-(S)-2-amino-2-(6-methoxy-2-naphthyl)acetate], `COC(=O)C(NC(=O)[C@H](C)NC(=O)Cc1cc(F)cc(F)c1)c1cccc(OC)c1` (stereo partly drawn) [Example 63, Methyl N-[N-(3,5-Difluorophenylacetyl)-L-alaninyl]-2-amino-2-(3-methoxyphenyl)acetate] is lower in melting point: 177 to 178 °C for the first, 163 to 170 °C for the second.

Compared with `CCOC(=O)C(NC(=O)[C@H](C)NC(=O)Cc1cc(F)cc(F)c1)c1ccccc1F` (stereo partly drawn) [Example 135, Ethyl N-[N-(3,5-Difluorophenylacetyl)-L-alaninyl]-2-amino-2-(2-fluorophenyl)acetate], `CCOC(=O)C(NC(=O)[C@H](C)NC(=O)Cc1cc(F)cc(F)c1)c1cc2ccccc2s1` (stereo partly drawn) [Example 174, Ethyl N-[N-(3,5-Difluorophenylacetyl)-L-alaninyl]-2-amino-2-(benzothiophen-2-yl)acetate] is higher in melting point: 153 to 170 °C for the first, 189 to 190 °C for the second.

First: CCCC[C@H](NC(=O)[C@H](C)NC(=O)Cc1cc(F)cc(F)c1)C(=O)O [Example 327, N-[N-(3,5-Difluorophenylacetyl)-L-alaninyl]-L-norleucine]
Second: CCOC(=O)[C@H](C)NC(=O)[C@H](C)NC(=O)Cc1cc(F)cc(F)c1 [Example 85, N-[N-(3,5-Difluorophenylacetyl)-L-alaninyl]-L-alanine Ethyl Ester]
The melting point of the first is lower: 158.5 to 160.5 °C for the first, 197 to 199 °C for the second.

First: CCOC(=O)[C@H](C)NC(=O)C(NC(=O)CC(C)C)C1CCCCC1 (stereo partly drawn) [Example 128, N-[N-(Isovaleryl)-2-amino-2-cyclohexylacetyl]-L-alanine Ethyl Ester] (Isovaleryl-[ξChg]-Ala-OEt)
Second: CCC[C@H](NC(=O)[C@H](C)NC(=O)Cc1ccccc1)C(=O)OC [Example 209, Methyl N-[N-(Phenylacetyl)-L-alaninyl]-2-(S)-aminopentanoate] (HELM PEPTIDE1{[O=C(Cc1ccccc1)[*:2]].A.[Nva].[CO[*:1]]}$$$$V2.0)
The melting point of the first is higher: 220 to 224 °C for the first, 135 to 137 °C for the second.

Compared with `COC(=O)[C@@H](NC(=O)[C@H](Cc1ccccc1)NC(=O)Cc1cc(F)cc(F)c1)c1ccccc1` [Example 197, N-[N-(3,5-Difluorophenylacetyl)-L-phenylalaninyl]-L-phenylglycine Methyl Ester], `CC[C@H](C)[C@H](NC(=O)Cc1cc(F)cc(F)c1)C(=O)N[C@H](C(=O)OC)c1ccccc1` [Example 255, N-[N-(3,5-Difluorophenylacetyl)-L-isoleucinyl]-L-phenylglycine Methyl Ester] is higher in melting point: 188.3 °C for the first, 228.8 °C for the second.

Compared with `C[C@H](NC(=O)Cc1cc(F)cc(F)c1)C(=O)N[C@@H](C(=O)OC(C)(C)C)c1cccs1` [Example 179, tert-Butyl N-[N-(3,5-Difluorophenylacetyl)-L-alaninyl]-(S)-2-amino-2-(2-thienyl)acetate], `C[C@H](NC(=O)Cc1cc(F)cc(F)c1)C(=O)NCC(=O)OCCCc1ccccc1` [Example 46, N-[N-(3,5-Difluorophenylacetyl)-L-alaninyl]glycine 3-Phenylpropyl Ester] is higher in melting point: 117 to 118 °C for the first, 137 °C for the second.

Compared with `CCOC(=O)CNC(=O)[C@H](C)NC(=O)Cc1cccc([N+](=O)[O-])c1` [Example 77, N-[N-(3-Nitrophenylacetyl)-L-alaninyl]glycine Ethyl Ester], `COC(=O)[C@H](Cc1ccccc1)NC(=O)[C@H](C)NC(=O)Cc1cccc([N+](=O)[O-])c1` [Example 75, N-[N-(3-Nitrophenylacetyl)-L-alaninyl]-L-phenylalanine Methyl Ester] is lower in melting point: 164 to 165 °C for the first, 154 to 158 °C for the second.

Compared with `C[C@H](NC(=O)Cc1cc(F)cc(F)c1)C(=O)N[C@@H](Cc1ccccc1)C(=O)OCCCBr` [Example 38, N-[N-(3,5-Difluorophenylacetyl)-L-alaninyl]-L-phenylalanine 3-Bromopropyl Ester], `CCCCCC=CCCC(=O)N[C@@H](C)C(=O)N[C@@H](Cc1ccccc1)C(=O)OC` [Example 12, N-[N-(Dec-4-enoyl)-L-alaninyl]-L-phenylalanine Methyl Ester] is lower in melting point: 138 to 142 °C for the first, 115.5 to 117.5 °C for the second.

For `COC(=O)[C@@H](NC(=O)CC1CCCC[C@@H]1NC(=O)Cc1cc(F)cc(F)c1)c1ccccc1` (stereo partly drawn) [Example 225, N-[N-(3,5-Difluorophenylacetyl)-2-(S)-aminocyclohexylacetyl]-L-phenylglycine Methyl Ester], the melting point was 234.4 °C.
